PMC8315922, “In Vitro Identification and In Vivo Confirmation of Inhibitors for Sweet Potato Chlorotic Stunt Virus RNA Silencing Suppressor, a Viral RNase III” (Journal of Virology, 2021)
Like-named read-outs stand apart in the source and are kept apart here.

Experiments:
sweetpotato plants = settings: 50 μM in culture medium
SPCSV = assay: Virus accumulation (RT-qPCR of coat protein RNA) in coinfected sweetpotato plants grown in culture medium: SPCSV; assay type: in vivo, Sweet potato chlorotic stunt virus; settings: for SPCSV_FC (fold change of viral accumulation): 50 μM in culture medium, 28 days, relative to DMSO control
Experimental: (§1) Since tests in culture medium consume smaller amounts of compounds and can be carried out under relatively controlled conditions, sweetpotato plants coinfected with SPCSV and SPFMV were grown in medium supplemented with one of the 30 inhibitor candidates at a concentration of 50 μM. Their effects on plant growth were monitored by imaging the plants once a week. […] In addition, virus accumulation was quantified by measuring the relative abundance of the transcripts encoding viral coat proteins using RT-qPCR ([32]). The effect of individual compounds on virus accumulation was estimated by comparing treated and control plants.
(§2) Sweetpotato plants cultivar 'Huachano' (accession CIP420065) were side-graft inoculated with both SPFMV (East African strain isolate Nam1) and SPCSV-Ug (East African serotype 2) as described previously ([62]). Plantlets were propagated by taking single-node stems grown in a plant culture medium ([33]). Next, plantlets with newly formed roots were transferred to glass tubes (18 by 150 mm) containing 10 ml of medium supplemented with either 50 μM compound (diluted in DMSO; final DMSO concentration, 0.1%) or only 0.1% DMSO as a control. For plant experiments in soil, plantlets were transferred to pots (6 by 6 by 10 cm) filled with a mixture of sand, humus, and washed soil. After 1 week, plants were treated by foliar spraying using either individual compounds at a single concentration (10 μM) (treatment) or water (control/mock) twice a week for 1 month. All plants were grown at 22°C with 60% humidity and a 16-h light/8-h dark photoperiod for 28 days in culture medium and for 41 days in soil. The Finnish National Plant Phenotyping Infrastructure (NaPPI) was used to monitor plant viral disease symptoms as described in our previous study ([33]). Four compounds were tested with the phenotyping platform in two independent batches, each of which included five biological replicates.
(§3) Leaf samples were collected from plants grown in culture medium or soil for 28 or 41 days, respectively, and frozen in liquid nitrogen. Total RNA was extracted using the Spectrum plant total RNA kit (Sigma-Aldrich). First-strand cDNA was synthesized using the Transcriptor first-strand cDNA synthesis kit (Roche, Basel, Switzerland). […] All RT-qPCR experiments were conducted in triplicate on three and five biological replicates from plants grown in culture medium and soil, respectively. The primer list can be found in our previous study ([33]).
(§4) For HTS, the activity of CSR3 was calculated by measuring the change in fluorescence as a function of the reaction time using MARS Data Analysis software (BMG Labtech). To evaluate the CSR3 inhibition efficiency of individual compounds, the PI of each compound was calculated using the slope values for the sample, positive control, and negative control according to the following equation: PI = 100 × [1 − (sample − positive)/(negative − positive)]%. IC50 and DSS values were calculated using concentration-specific PI values according to a previous study ([31]). Relative gene expression was calculated using the classical 2^−ΔΔ^CT method ([63]).

[1] = target: CSR3 (RNase III of SPCSV) (Sweet potato chlorotic stunt virus, UniProt Q8JJW8); assay: Kinetic-based FRET dose-response assay (IC50, DSS); assay type: biochemical; set-up: DSS / DSS Comm 1 / DSS FIMM1 / DSS FIMM 2: scale not given here; settings: for DSS Comm 1 / DSS FIMM1 / DSS FIMM 2: drug sensitivity score; for DSS Comm 1: repeat Comm 1; for DSS FIMM1: repeat FIMM 1; for DSS FIMM 2: repeat FIMM 2
Experimental: A dose-response assay with six concentrations (1.25 nM to 50 μM) was carried out in three independent experiments, which included two tests with the 112 selected FIMM compounds (i.e., compounds prepared by the HTB-FIMM) and one test using the newly ordered commercial compounds (99 of the 112 compounds, i.e., compounds prepared by a second supplier). A dose-response curve was generated for each compound based on PI values as a function of the concentration.
The HTS assay was designed based on FRET using a 22-bp siRNA (forward sequence, […]; reverse sequence, […]) with a 2-nucleotide (nt) 3′ overhang labeled with the fluorescent dye 6-carboxyfluorescein (FAM) and a black hole quencher (BHQ1) on the sense strand (Metabion, Munich, Germany). Screening was initially carried out at one concentration (10 μM) in a 20-μl reaction buffer. […] All reaction mixtures contained 50 nM CSR3 and 375 nM labeled siRNA in 384-well black flat-bottom microplates (Corning, NY, USA) and were prepared using a BioTek MultiFlo FX dispenser with single-channel random access dispenser cassettes (BioTek, Winooski, VT, USA). The plates were read with a PHERAstar FS reader (BMG Labtech, Ortenberg, Germany).
as §4

CSR3 [2] = target: T1, CSR3 (Sweet potato chlorotic stunt virus, UniProt Q8JJW8); assay: Binding affinity assay using MST; settings: for Kd: MST binding affinity to CSR3; for Kd / Binding (Yes/No) / Response Amplitude: Table S4; for Binding (Yes/No): MST binding call; for Response Amplitude: MST response amplitude; for Comments: MST behaviour of compound (V-shape response, fluorescence quenching, interference, aggregator)
T1 sequence (Q8JJW8 1-228): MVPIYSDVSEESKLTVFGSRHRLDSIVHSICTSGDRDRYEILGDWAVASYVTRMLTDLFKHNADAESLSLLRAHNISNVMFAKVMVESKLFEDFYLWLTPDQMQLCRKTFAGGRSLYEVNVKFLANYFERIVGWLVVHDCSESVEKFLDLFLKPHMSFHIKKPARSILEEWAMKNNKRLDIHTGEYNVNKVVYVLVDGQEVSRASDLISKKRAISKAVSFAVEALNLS
Experimental: (§5) Binding affinity assays were first carried out with the 99 commercial compounds using the MST method.
The labeled-protein solution containing 500 nM proteins and 40 nM dye was prepared in PBS buffer with 2% dimethyl sulfoxide (DMSO) for the assay. The 12 concentrations for each compound were obtained by 2-fold serial dilutions (0.2 μM to 400 μM). […] Two independent experiments were carried out in premium coated capillaries (NanoTemper, Munich, Germany) using a Monolith NT.Automated instrument (NanoTemper) with the power set at high (80%), the light-emitting diode (LED) power (pico red) set at 5%, and the on-time set at 20 s. The dissociation constant (Kd) was determined using the MO.Affinity Analysis program (NanoTemper).

SPFMV = assay: Virus accumulation (RT-qPCR of coat protein RNA) in coinfected sweetpotato plants grown in culture medium: SPFMV; assay type: in vivo, Sweet potato feathery mottle virus; settings: for SPFMV_FC (fold change of viral accumulation): 50 μM in culture medium, 28 days, relative to DMSO control
Experimental: as §1, §2, §3, §4

CSR3 [3] = target: T1, CSR3; assay: Binding affinity assay using SPR; settings: SPR dose-response 3 μM to 200 μM, 25°C, numbers match M (cf. Fig 5A)
Experimental: as §5
CSR3 was purified as described above and stored in PBS buffer. SPR was performed on a BiacoreT100 instrument (GE Healthcare) using a sensor S CM5 chip (GE Healthcare). CSR3 (10 ng/μl) was immobilized using the standard amine-coupling method according to the manufacturer’s instructions with immobilization buffer (10 mM sodium acetate [pH 4]); the final response unit (RU) value was 11,459. Compounds at a single concentration (100 μM) or consisting of 2-fold serial dilutions (3 μM to 200 μM) were flowed over the sensor surface using PBS buffer with 0.01 M HEPES, 0.05% surfactant P20, and 2% DMSO. […] To eliminate bulk interference by DMSO, a solvent correction consisting of DMSO at concentrations ranging from 1.5% to 2.8% was carried out for every 30 samples. Steady-state affinity (KD) values were determined using BiacoreT100 Evaluation software, v.2.04 (GE Healthcare).

[4] = system: human enzymes or bacterial proteins; set-up: method as in earlier work; settings: ref PubChem https://pubchem.ncbi.nlm.nih.gov/compound/7114450#section=Biological-Test-Results; cited from earlier work
[5] = repeat Comm 1 (commercial compounds), 1.25 nM to 50 μM, unit inferred, numbers match nM, read-out: IC50 Comm 1
[6] = repeat FIMM 1 (FIMM library compounds), 1.25 nM to 50 μM, unit inferred, numbers match nM (cf. Fig 5A), read-out: IC50 FIMM1
[7] = repeat FIMM 2 (FIMM library compounds), 1.25 nM to 50 μM, unit inferred, numbers match nM, read-out: IC50 FIMM 2
[8] = plants in culture medium, 50 μM
[9] = kinetic-based HTS, Fig 5A summary
[10] = read-out: IC50 Comm 1, repeat Comm 1 (commercial compounds), 1.25 nM to 50 μM, unit inferred, numbers match nM

Row | Compound | Toxicity (sweetpotato plants) | SPCSV_FC (fold change of viral accumulation) (SPCSV) | DSS Comm 1 [1] | DSS FIMM1 [1] | DSS FIMM 2 [1] | IC50 [1, 5] [nM] | IC50 [1, 6] [nM] | IC50 [1, 7] [nM] | Binding (Yes/No) (CSR3 [2]) | Response Amplitude (CSR3 [2]) | SPFMV_FC (fold change of viral accumulation) (SPFMV) | Comments (CSR3 [2]) | SPCSV accumulation reduced (SPCSV; [8]) [fold] | DSS [1, 9] | IC50 [1, 9] [nM] | IC50 [1, 10] [nM] | SPFMV accumulation reduced (SPFMV; [8]) [fold] | also measured
1 | CCn1c(S)nnc1CCNC(=O)c1cccs1 [FIMM099662] | no | 0.5483 | 6 | 11.7 | 10.2 | 11400 | 3070 | 3810 | Yes | 21 | 0.9387 | – | – | – | – | – | – | Kd (CSR3 [2]; read-out: Kd): 1780 nM
2 | O=S(=O)(O)c1cccc2cc(O)ccc12 [FIMM072577] | no | 0.7975 | 20.7 | 18.3 | 22.1 | 391 | 699 | 295 | No | 0 | 1.005 | Interference | – | – | – | – | – | Steady State Affinity (CSR3 [3]; unit not given): non binder
3 | O=C(O)c1ccc2c(c1)C1C=CCC1C(c1ccc(F)cc1)N2 (stereo not drawn) [FIMM051696] | no | 0.2923 | 11.1 | 12.4 | 10.8 | – | – | – | No | 0.517 | 0.3032 | – | ~4 | 12.4 | ~2820 | 3610 | ~4 | activity in inhibitor screens for human enzymes or bacterial proteins [4]: inactive; viral titer SPCSV (log2 fold change relative to controls) (SPCSV; [8]): −1.77; IC50 ([1]; read-out: IC50 FIMM1, repeat FIMM 1 (FIMM library compounds), 1.25 nM to 50 μM, unit inferred, numbers match nM (cf. Fig 5A)): 2820 nM; IC50 ([1]; read-out: IC50 FIMM 2, repeat FIMM 2 (FIMM library compounds), 1.25 nM to 50 μM, unit inferred, numbers match nM): 4000 nM; Kd (CSR3 [3]; unit inferred, read-out: Steady State Affinity): 3.65 µM; viral titer SPFMV (log2 fold change relative to controls) (SPFMV; [8]): −1.72
4 | CN1CCc2cccc3c2[C@H]1Cc1ccc(O)c(O)c1-3 [FIMM000096, reference compound] | – | – | 12.7 | 12.7 | 12.8 | – | – | 2880 | Yes | 11808 | – | Fluorescence quenching | ~4 | 12.7 | ~2950 | 2950 | ~2 | Kd (CSR3 [2]): 690 nM
5 | CC(C)(C)C1CCc2c(sc(NC(=O)C3CC=CCC3C(=O)O)c2C(N)=O)C1 (stereo not drawn) [FIMM104970] | – | – | 2.4 | 0 | 2.1 | 3620 | – | – | No | 2.23 | – | – | – | – | – | – | – | –
6 | CN1C(=O)C(=CNc2ccc(F)cc2)C(=O)N(C)C1=O [FIMM059523] | – | – | – | 0 | 2.3 | – | – | 21000 | – | – | – | – | – | – | – | – | – | –
